Experimental data reported in US11274106B2, “Topoisomerase inhibitors with antibacterial and anticancer activity” (THE BOARD OF TRUSTEES OF THE UNIVERSITY OF ILLINOIS, priority 2017, dated 2022).
In brackets after ≈: the same amount, converted by molar mass. Entries after “also recorded” stand apart in the source; their conditions may differ. Read-outs that look alike come from different tables or passages of the source.

Tests used:
[1] = system: MDA-MB-231 triple negative breast cancer cells; assay: Antiproliferative SRB assay, MDA-MB-231; type: cell-based; details: for IC50: mean ± SEM
Description: FIG. 1. […] Cell death measured by SRB assay after 72 hour of compound exposure (n≥3 biological replicates, error bars show SEM). IC50 values given as mean±SEM from ≥3 biological replicates.
To investigate the feasibility of developing a class of antitumor antibiotics based upon the DNM scaffold, the ability of the DNM to exert an antiproliferative effect against MDA-MB-231 breast cancer cells was evaluated.

ES-2 = assay: Antiproliferative SRB assay, ES-2; type: cell-based; details: Homo sapiens, ES-2, 72 h, Cervical cancer (footnote f), mean ± SEM
Text: (§1) Topoisomerase inhibitors such as DOX are used as single agent and in combination therapy to treat a wide-range of cancer types.

HL-60 = assay: Cell viability Alamar Blue assay, HL-60; type: cell-based; details: Homo sapiens, HL-60, 72 h, Leukemia, mean ± SEM
Text: as §1

E. coli = assay: Antibacterial MIC, microbroth dilution, E. coli; type: cell-based; details: for MIC: Escherichia coli
Description: (§2) To investigate this possibility, the antibacterial effects of the DNM derivatives was assessed against strains of E. coli, S. aureus, and MRSA using the microbroth dilution method (Table 2).

IMR32 = assay: Antiproliferative SRB assay, IMR32; type: cell-based; details: Homo sapiens, IMR-32, 72 h, Neuroblastoma, mean ± SEM
Text: as §1

S. aureus = assay: Antibacterial MIC, microbroth dilution, S. aureus; type: cell-based; details: for MIC: Staphylococcus aureus
Description: as §2

BT-474 = assay: Antiproliferative SRB assay, BT-474; type: cell-based; details: Homo sapiens, BT-474, 72 h, Breast cancer, mean ± SEM
Text: as §1

HCT-116 = assay: Antiproliferative SRB assay, HCT-116; type: cell-based; details: Homo sapiens, HCT-116, 72 h, Colon cancer, mean ± SEM
Text: as §1

panel of cancer cells = assay: Average over panel of 10 cancer cell lines; type: cell-based; details: 72 hour, read-out: Average (mean) IC50 over the cell line panel
Text: as §1

HOS = assay: Antiproliferative SRB assay, HOS; type: cell-based; details: Homo sapiens, 72 h, Osteosarcoma, mean ± SEM
Text: as §1

H460 = assay: Antiproliferative SRB assay, H460; type: cell-based; details: Homo sapiens, NCI-H460, 72 h, Lung cancer, mean ± SEM
Text: as §1

HeLa = assay: Antiproliferative SRB assay, HeLa; type: cell-based; details: Homo sapiens, 72 h, Ovarian cancer (footnote e), mean ± SEM
Text: as §1

Jurkat = assay: Cell viability Alamar Blue assay, Jurkat; type: cell-based; details: Homo sapiens, 72 h, Leukemia, mean ± SEM
Text: as §1

Top2cc = target: T1, Top2cc (Homo sapiens, UniProt P11388); assay: ICE assay for Top2α-DNA complexes in H460 cells; type: cell-based; details: 50 μM
T1 construct: endogenous in cells; host or cells: H460
Text: FIG. 3. DNM derivatives are dual Top1/Top2 inhibitors with different modes of inhibition. (a) Inhibition of decatenating ability of Top2α with increasing concentrations of ETP, 6DNM-NH3, 6DNM-Pyr, and Ph-6DNM-NH3. K, kinetoplast DNA; OC, open circular; R, relaxed. (b) Inhibition of relaxing ability of Top1 with increasing concentrations of CPT, 6DNM-NH3, 6DNM-Pyr, and Ph-6DNM-NH3. R, relaxed; S, supercoiled. (c) Detection of Top2a-DNA using the ICE Assay. Genomic DNA ([…]) of H460 cells treated with drugs (50 μM, 30 min) was applied to nitrocellulose membrane and immunoblotted for Top2a. (d) Detection of Top1-DNA adducts using ICE Assay. Same procedure as (c) using 1 μg of DNA. (e) Inhibition of ETP-induced poisoning of Top2a. H460 cells treated with indicated concentrations of inhibitor for 30 min prior to treatment with ETP (50 μM). Detection of Top2α as in (c).
The in vivo complex of enzyme (ICE) assay can be used to distinguish poisons from catalytic inhibitors. The ICE assay consists of isolating the genomic DNA of cells treated with small molecules in a manner the preserves covalent DNA-protein complexes and applying it to nitrocellulose membranes. Because topoisomerase poisons stabilize the cleavage complexes, DNA-protein complexes can be detected by immunoblotting for specific topoisomerases, whereas catalytic inhibitors produce no such result. To determine if DNM derivatives are acting as poisons or catalytic inhibitors, H460 human lung cells were exposed to 50 μM of the Top2 poison ETP, Ph-6DNM-NH3, 6DNM-NH3, and 6DNM-Pyr and assessed for their ability to stabilize Top2cc. […] In a similar fashion, next investigated was the mode of Top1 inhibition using the ICE assay (FIG. 3b).

MRSA = assay: Antibacterial MIC, microbroth dilution, MRSA; type: cell-based, S. aureus; details: for MIC: Staphylococcus aureus, MRSA, microbroth dilution
Description: as §2

[2] = Homo sapiens, MDA-MB-231, 72 h, Breast cancer, SRB assay, read-out: 72 hour IC50, MDA-MB-231
[3] = Homo sapiens, MDA-MB-231, 72 h, SRB assay, 72 hour compound exposure, read-out: MDA-MB-231 IC50
[4] = SRB assay, 72 hour compound exposure, read-out: MDA-MB-231 IC50

T1 sequence (P11388 whole entry): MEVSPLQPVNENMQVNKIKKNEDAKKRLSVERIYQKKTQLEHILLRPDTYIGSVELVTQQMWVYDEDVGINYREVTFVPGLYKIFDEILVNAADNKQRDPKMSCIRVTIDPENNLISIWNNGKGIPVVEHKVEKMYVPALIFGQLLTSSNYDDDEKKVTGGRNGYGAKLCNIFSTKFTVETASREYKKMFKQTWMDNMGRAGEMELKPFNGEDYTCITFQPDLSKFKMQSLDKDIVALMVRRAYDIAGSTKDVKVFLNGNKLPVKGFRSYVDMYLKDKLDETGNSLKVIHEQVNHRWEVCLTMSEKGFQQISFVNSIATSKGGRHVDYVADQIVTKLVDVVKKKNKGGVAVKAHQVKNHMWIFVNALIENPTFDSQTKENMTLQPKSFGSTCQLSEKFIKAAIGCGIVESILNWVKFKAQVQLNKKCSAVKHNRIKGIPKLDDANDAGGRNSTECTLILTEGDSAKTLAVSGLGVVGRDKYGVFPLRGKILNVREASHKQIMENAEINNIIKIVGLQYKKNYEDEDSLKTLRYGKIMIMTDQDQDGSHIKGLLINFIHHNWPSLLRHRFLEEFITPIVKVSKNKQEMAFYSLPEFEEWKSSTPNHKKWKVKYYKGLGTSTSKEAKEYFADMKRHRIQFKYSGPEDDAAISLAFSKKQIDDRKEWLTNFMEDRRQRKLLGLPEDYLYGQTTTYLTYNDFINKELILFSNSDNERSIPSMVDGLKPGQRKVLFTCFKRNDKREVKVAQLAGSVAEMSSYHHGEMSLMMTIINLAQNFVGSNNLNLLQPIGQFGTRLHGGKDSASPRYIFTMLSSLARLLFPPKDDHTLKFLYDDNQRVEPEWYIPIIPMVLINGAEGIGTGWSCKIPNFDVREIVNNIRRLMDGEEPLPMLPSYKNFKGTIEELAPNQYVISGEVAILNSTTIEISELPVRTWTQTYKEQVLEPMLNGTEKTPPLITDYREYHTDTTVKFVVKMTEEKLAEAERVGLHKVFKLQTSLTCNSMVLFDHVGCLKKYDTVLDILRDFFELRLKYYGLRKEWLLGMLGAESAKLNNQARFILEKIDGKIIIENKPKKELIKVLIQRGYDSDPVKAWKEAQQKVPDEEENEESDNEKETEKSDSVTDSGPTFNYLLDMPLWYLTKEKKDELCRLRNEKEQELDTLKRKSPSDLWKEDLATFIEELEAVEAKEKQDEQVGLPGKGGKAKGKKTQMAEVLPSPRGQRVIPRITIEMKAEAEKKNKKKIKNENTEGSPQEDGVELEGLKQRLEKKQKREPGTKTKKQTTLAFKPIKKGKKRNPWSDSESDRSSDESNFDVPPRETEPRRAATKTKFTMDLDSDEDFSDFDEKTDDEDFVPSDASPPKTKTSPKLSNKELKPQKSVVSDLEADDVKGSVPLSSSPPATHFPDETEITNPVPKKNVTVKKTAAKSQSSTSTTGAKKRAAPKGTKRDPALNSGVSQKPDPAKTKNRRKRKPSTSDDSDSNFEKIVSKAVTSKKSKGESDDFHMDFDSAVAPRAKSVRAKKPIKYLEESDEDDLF

Cc1cc(=O)n2c3c(c4c(cc13)c1ccccc1c(=O)n4C)OCC2CN1CCCCC1 (stereo not drawn) [Compound 23]
IC50 [1, 2]: 79 ± 7 nM | IC50 [1, 3]: 79 ± 7 nM | IC50 (ES-2): 67 ± 8 nM | IC50 (HL-60): 440 ± 130 nM | MIC (E. coli): 2 µg/mL (≈ 4.66 µM) | IC50 (IMR32): 20 ± 0.2 nM | MIC (S. aureus): 0.5 µg/mL (≈ 1.16 µM) | IC50 (BT-474): 1000 ± 100 nM | IC50 (HCT-116): 79 ± 10 nM | IC50 (panel of cancer cells): 214 nM | IC50 (HOS): 55 ± 1 nM | IC50 (H460): 24 ± 2 nM | IC50 (HeLa): 136 ± 5 nM | IC50 (Jurkat): 240 ± 40 nM

COc1cc([C@@H]2c3cc4c(cc3[C@@H](O[C@@H]3O[C@@H]5CO[C@@H](C)O[C@H]5[C@H](O)[C@H]3O)[C@H]3COC(=O)[C@H]23)OCO4)cc(OC)c1O [ETP, etoposide, reference compound]
Antiproliferative effect against MDA-MB-231 cells ([1]; FIG. 1, SRB assay, 72 hour): sensitive | Accumulation of Top2cc (ICE assay) (Top2cc): resulted in the accumulation of Top2cc

Cc1cc(=O)n(C)c2c3c4c(cc12)c(C)cc(=O)n4C(C(N)=O)O3 (stereo not drawn) [Compound 4]
IC50 [1, 3]: 8300 ± 700 nM | MIC (E. coli): > 16 µg/mL | MIC (S. aureus): > 16 µg/mL | MIC (MRSA): 4 µg/mL (≈ 12.3 µM)

Cc1cc(=O)n(C)c2c3c4c(cc12)c(C)cc(=O)n4C(CC(=O)O)CO3 (stereo not drawn) [Compound 6]
IC50 [1, 3]: > 10000 nM | MIC (E. coli): > 32 µg/mL | MIC (S. aureus): > 16 µg/mL | MIC (MRSA): 16 µg/mL (≈ 45.2 µM)

Cc1cc(=O)n2c3c(c4c(cc13)c1ccccc1c(=O)n4C)OCC2 [Compound 14]
IC50 [1, 3]: 930 ± 400 nM | MIC (E. coli): > 16 µg/mL | MIC (S. aureus): 2 µg/mL (≈ 6.02 µM) | MIC (MRSA): 0.5 µg/mL (≈ 1.5 µM)

Cc1cc(=O)[nH]c2c3c4c(cc12)c(C)cc(=O)n4CCO3 [Compound 10]
IC50 [1, 3]: 1600 ± 200 nM | MIC (E. coli): > 32 µg/mL | MIC (S. aureus): 4 µg/mL (≈ 14.2 µM)

Cc1cc(=O)n2c3c(c4c(cc13)c1ccccc1c(=O)n4C)OCC2CN (stereo not drawn) [Compound 17]
IC50 [1, 4]: 130 ± 30 nM | E. coli MIC (E. coli): 2 µg/mL | S. aureus MIC (S. aureus): 4 µg/mL

Cc1cc(=O)n(C)c2c3c4c(cc12)c(C)cc(=O)n4CO3 [Compound 1]
IC50 [1, 3]: 1100 ± 200 nM | MIC (E. coli): > 16 µg/mL | MIC (S. aureus): 2 µg/mL (≈ 7.08 µM) | MIC (MRSA): 0.03 µg/mL (≈ 0.106 µM)

Cc1cc(=O)n(CCN)c2c3c4c(cc12)c(C)cc(=O)n4CCO3 [Compound 12]
IC50 [1, 3]: 220 ± 60 nM | MIC (E. coli): 4 µg/mL (≈ 12.3 µM) | MIC (S. aureus): 4 µg/mL (≈ 12.3 µM)

Cc1cc(=O)n2c3c(c4c(cc13)c1ccccc1c(=O)n4C)OCC2CN1CCCC1 (stereo not drawn) [Compound 22]
IC50 [1, 2]: 31 ± 3 nM | IC50 [1, 3]: 31 ± 3 nM | IC50 (ES-2): 23 ± 4 nM | IC50 (HL-60): 94 ± 6 nM | MIC (E. coli): 1 µg/mL (≈ 2.41 µM) | IC50 (IMR32): 4.9 ± 0.1 nM | MIC (S. aureus): 0.25 µg/mL (≈ 0.602 µM) | IC50 (BT-474): 235 ± 1 nM | IC50 (HCT-116): 23 ± 3 nM | IC50 (panel of cancer cells): 55 nM | IC50 (HOS): 16 ± 0.4 nM | IC50 (H460): 7.2 ± 0.6 nM | IC50 (HeLa): 46 ± 2 nM | IC50 (Jurkat): 69 ± 7 nM

Cc1cc(=O)[nH]c2c3c4c(cc12)c(C)cc(=O)n4C(CN)CO3 (stereo not drawn) [Compound 11]
IC50 [1, 3]: 860 ± 70 nM | MIC (E. coli): 2 µg/mL (≈ 6.42 µM) | MIC (S. aureus): 4 µg/mL (≈ 12.8 µM)

Cc1cc(=O)n(C)c2c3c4c(cc12)c(C)cc(=O)n4C(CO)CO3 (stereo not drawn) [Compound 7]
IC50 [1, 3]: > 10000 nM | MIC (E. coli): > 16 µg/mL | MIC (S. aureus): 16 µg/mL (≈ 49 µM) | Activity against MRSA (MRSA): remains effective against MRSA | MIC (MRSA): 0.25 µg/mL (≈ 0.766 µM)

CCOC(=O)C1Oc2c3c(cc4c(C)cc(=O)n1c24)c(C)cc(=O)n3C (stereo not drawn) [Compound 3]
IC50 [1, 3]: > 10000 nM | MIC (E. coli): > 16 µg/mL | MIC (S. aureus): > 16 µg/mL | Activity against MRSA (MRSA): remains effective against MRSA | MIC (MRSA): 0.5 µg/mL (≈ 1.41 µM)

Cc1cc(=O)n(C)c2c3c4c(cc12)c(C)cc(=O)n4C(CN)CO3 (stereo not drawn) [Compound 18]
IC50 [1, 4]: 200 ± 10 nM | E. coli MIC (E. coli): 0.25 µg/mL | S. aureus MIC (S. aureus): 0.5 µg/mL

Cc1cc(=O)n2c3c(c4c(cc13)c1ccccc1c(=O)n4C)OCC2CN (stereo not drawn) [Compound 16]
IC50 [1, 4]: 30 ± 6 nM | E. coli MIC (E. coli): 0.25 µg/mL | S. aureus MIC (S. aureus): 1 µg/mL

O=C(O)c1cn(C2CC2)c2cc(N3CCNCC3)c(F)cc2c1=O [ciprofloxacin, reference compound]
Antiproliferative effect against MDA-MB-231 cells ([1]; doses as high as 50 μM): only minimal effects

Cc1cc(=O)n(-c2ccccc2)c2c3c4c(cc12)c(C)cc(=O)n4C(CN)CO3 (stereo not drawn) [Compound 13]
IC50 [1, 3]: 1600 ± 600 nM | MIC (E. coli): > 16 µg/mL | MIC (S. aureus): > 16 µg/mL

Cc1cc(=O)n(C)c2c3c4c(cc12)c(C)cc(=O)n4CCO3 [Compound 2]
Antiproliferative effect against MDA-MB-231 cells ([1]; FIG. 1, SRB assay, 72 hour, listed as 6DNM): produces quantitative cell death; also recorded: equipotent to the clinical trial compound vosoraxin | IC50 [1, 3]: 730 ± 90 nM | MIC (E. coli): > 16 µg/mL | MIC (S. aureus): 1 µg/mL (≈ 3.37 µM) | MIC (MRSA): 0.06 µg/mL (≈ 0.202 µM)

CC(=O)NCC1COc2c3c(cc4c(C)cc(=O)n1c24)c(C)cc(=O)n3C (stereo not drawn) [Compound 8]
IC50 [1, 3]: > 10000 nM | MIC (E. coli): > 16 µg/mL | MIC (S. aureus): 32 µg/mL (≈ 87.1 µM) | MIC (MRSA): 0.5 µg/mL (≈ 1.36 µM)

Cc1cc(=O)n(C)c2c3c4c(cc12)c(C)cc(=O)n4C(C(=O)O)O3 (stereo not drawn) [Compound 5]
IC50 [1, 3]: 3600 ± 600 nM | MIC (E. coli): > 32 µg/mL | MIC (S. aureus): > 32 µg/mL | MIC (MRSA): 2 µg/mL (≈ 6.13 µM)

Cc1cc(=O)n(C)c2c3c4c(cc12)c(C)cc(=O)n4C(CN)CO3 (stereo not drawn) [Compound 19]
IC50 [1, 4]: 4000 ± 800 nM | E. coli MIC (E. coli): >16 µg/mL | S. aureus MIC (S. aureus): 32 µg/mL

COc1cccc2c1C(=O)c1c(O)c3c(c(O)c1C2=O)C[C@@](O)(C(=O)CO)C[C@@H]3O[C@H]1C[C@H](N)[C@H](O)[C@H](C)O1 [Doxorubicin, doxorubicin, reference compound]
Antiproliferative effect against MDA-MB-231 cells ([1]; FIG. 1, SRB assay, 72 hour): sensitive | IC50 [1, 2]: 21 ± 2 nM | IC50 (ES-2): 32 ± 3 nM | IC50 (HL-60): 84 ± 11 nM | IC50 (IMR32): 2.9 ± 0.4 nM | IC50 (BT-474): 260 ± 70 nM | IC50 (panel of cancer cells): 55 nM | IC50 (HOS): 19 ± 7 nM | IC50 (H460): 6.1 ± 1 nM | IC50 (HeLa): 24 ± 9 nM | IC50 (Jurkat): 17 ± 3 nM
